{
  "source": "patent US20250312469A1",
  "about": "(CANGET BIOTEKPHARMA, priority 2024, published 2025)",
  "key": {"ABCG2/BCRP": {"molecular_target": "T1, ABCG2/BCRP (Homo sapiens, UniProt Q9UNQ0)", "T1 sequence (Q9UNQ0 1-655)": "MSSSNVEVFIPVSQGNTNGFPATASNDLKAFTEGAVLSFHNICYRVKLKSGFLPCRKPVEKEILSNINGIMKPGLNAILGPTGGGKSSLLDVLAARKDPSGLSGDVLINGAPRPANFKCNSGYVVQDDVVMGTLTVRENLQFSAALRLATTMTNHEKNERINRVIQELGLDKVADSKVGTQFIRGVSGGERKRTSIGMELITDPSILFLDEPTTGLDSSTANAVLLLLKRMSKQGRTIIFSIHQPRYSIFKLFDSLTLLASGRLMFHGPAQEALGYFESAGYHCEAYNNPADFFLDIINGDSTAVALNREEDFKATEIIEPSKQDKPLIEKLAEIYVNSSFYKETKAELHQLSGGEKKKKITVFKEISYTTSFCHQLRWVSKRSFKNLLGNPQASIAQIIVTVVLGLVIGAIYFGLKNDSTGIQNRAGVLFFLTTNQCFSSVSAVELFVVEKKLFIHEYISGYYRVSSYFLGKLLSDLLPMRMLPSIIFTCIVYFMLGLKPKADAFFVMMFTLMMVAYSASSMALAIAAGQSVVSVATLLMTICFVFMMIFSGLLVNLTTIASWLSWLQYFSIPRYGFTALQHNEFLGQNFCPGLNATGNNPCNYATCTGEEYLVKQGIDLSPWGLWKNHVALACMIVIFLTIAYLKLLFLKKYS", "experiment": "ABCG2/BCRP inhibition (BCRP-MDCK, cladribine)", "protocol": "After 30 minutes the buffer was removed, replaced with fresh dosing solution/assay buffer, and time was recorded as 0. […] Each determination was performed in duplicate. […] Analytical conditions are outlined in Appendix 1."}, "Agrin mRNA": {"test_system": "Agrin mRNA", "experiment": "Real-time RT-PCR of Agrin mRNA in Panc-1 and MiaPaca2 cells", "format": "cell-based, human", "protocol": "Real time quantitative (q) RT-PCR: Real time RT-PCR methods were described previously (9, 56). Pertinent to this study, total RNAs were extracted from cancer cells using TRI REAGENT RT (Molecular Research Center), and 5 μg per sample was converted to cDNA with anchored oligo (dT) primers using RevertAid First Strand cDNA Synthesis Kit (Thermo Fisher Scientific, Catalog No. K1622) following the manufacturer's instructions. Individual reverse transcription (RT) reactions of 20 μL were then diluted to 200 μL with sterile H2O. Five microliters of diluted RT reaction were used for real-time qPCR using Maxima SYBR Green/ROX qPCR Master Mix (2×, Thermo Fisher Scientific, Catalog No. K0223). The primers used in qPCR were as follows: 5′-GGC GCA CAG CAC AAG AGG-3′ (DDX5 qPCR-F, forward) and 5′-ATGGCAGGAAGCAAATAAGACAA-3′ (DDX5 qPCR-R, reverse); 5′-CTTCTGCTTCAAGGAGCTGGAAG-3′ (hsv5p2, survivin, forward) and 5′-GCACTTTCTTCGCAGTTTCCTC-3′ (hvs3p2, survivin, reverse); 5′-CCACAGCAAACCTCCTCACAG-3′ (myc5, c-Myc, forward) and 5′-GCAGGATAGTCCTTCCGAGTG-3′ (myc3, c-Myc, reverse); 5′-GTCTCCTCTGACTTCAACAGCG-3′ (hGAPDH-5, forward) and 5′-ACCACCCTGTTGCTGTAGCCAA-3′ (hGAPDH-3, reverse). GAPDH was used as an internal control. […] The data were analyzed using the Applied Biosystems 7300 Real Time PCR System and normalized to GAPDH."}, "TA1535": {"test_system": "TA1535", "experiment": "Ames Bacterial Reverse Mutation Assay"}, "[1]": {"test_system": "LAPC9-AI vs. LAPC9-AD cells", "experiment": "LAPC9 organoid assay", "format": "cell-based"}, "[2]": {"conditions": "TA1535 partial repeat, 0.010 μM −S9"}, "[3]": {"conditions": "TA1535 partial repeat, 0.10 μM −S9"}, "[4]": {"conditions": "TA1535 partial repeat, 1.0 μM −S9"}},
  "note": "Values joined by “and” are separate entries in the source; they are usually repeats but may differ in a detail not shown here. Identical values can stand only once.",
  "data": [
    {"smiles": "CCC1(O)C(=O)OCc2c1cc1n(c2=O)Cc2cc3cc4c(cc3nc2-1)OCO4", "note": "(stereo not drawn) [FL118]", "values": [
      {"measurement": "inhibition of BCRP transport of cladribine", "setting": "ABCG2/BCRP; 1.0 μM FL118", "value": "does not inhibit cladribine acting as a BCRP substrate"},
      {"measurement": "BCRP Inhibition Potential Classification", "setting": "ABCG2/BCRP; BCRP-MDCK, cladribine as substrate, 1.0 μM FL118 or 0.5 μM Ko143", "value": "Negative (without inhibitor, and reduced by <50 with inhibitor: Negative)"},
      {"measurement": "Agrin mRNA", "setting": "Agrin mRNA", "value": "inhibits Agrin mRNA"},
      {"measurement": "bacterial strain mutation", "setting": "TA1535", "value": "does not induce"},
      {"measurement": "Background Lawn Code", "setting": "TA1535; TA1535, 0.010 μM +S9", "value": 1},
      {"measurement": "Colony Counts Average", "setting": "TA1535; TA1535, 0.010 μM +S9", "value": 14},
      {"measurement": "Colony Counts Replicate 1-3", "setting": "TA1535; TA1535, 0.010 μM +S9", "value": "20 and 9 and 13"},
      {"measurement": "Background Lawn Code", "setting": "TA1535; TA1535, 0.010 μM −S9", "value": 1},
      {"measurement": "Colony Counts Average", "setting": "TA1535; TA1535, 0.010 μM −S9", "value": 39},
      {"measurement": "Colony Counts Replicate 1-3", "setting": "TA1535; TA1535, 0.010 μM −S9", "value": "39 and 37 and 41"},
      {"measurement": "Background Lawn Code", "setting": "TA1535; TA1535, 0.10 μM +S9", "value": 1},
      {"measurement": "Colony Counts Average", "setting": "TA1535; TA1535, 0.10 μM +S9", "value": 14},
      {"measurement": "Colony Counts Replicate 1-3", "setting": "TA1535; TA1535, 0.10 μM +S9", "value": "13 and 8 and 20"},
      {"measurement": "Background Lawn Code", "setting": "TA1535; TA1535, 0.10 μM −S9", "value": 1},
      {"measurement": "Colony Counts Average", "setting": "TA1535; TA1535, 0.10 μM −S9", "value": 61},
      {"measurement": "Colony Counts Replicate 1-3", "setting": "TA1535; TA1535, 0.10 μM −S9", "value": "54 and 62 and 67"},
      {"measurement": "Background Lawn Code", "setting": "TA1535; TA1535, 1.0 μM +S9", "value": 1},
      {"measurement": "Colony Counts Average", "setting": "TA1535; TA1535, 1.0 μM +S9", "value": 12},
      {"measurement": "Colony Counts Replicate 1-3", "setting": "TA1535; TA1535, 1.0 μM +S9", "value": "12 and 10 and 15"},
      {"measurement": "Background Lawn Code", "setting": "TA1535; TA1535, 1.0 μM −S9", "value": 1},
      {"measurement": "Colony Counts Average", "setting": "TA1535; TA1535, 1.0 μM −S9", "value": 25},
      {"measurement": "Colony Counts Replicate 1-3", "setting": "TA1535; TA1535, 1.0 μM −S9", "value": "23 and 21 and 30"},
      {"measurement": "Background Lawn Code", "setting": "TA1535; [2]", "value": 1},
      {"measurement": "Colony Counts Average", "setting": "TA1535; [2]", "value": 12},
      {"measurement": "Colony Counts Replicate 1-3", "setting": "TA1535; [2]", "value": "13 and 12 (2×)"},
      {"measurement": "Background Lawn Code", "setting": "TA1535; [3]", "value": 1},
      {"measurement": "Colony Counts Average", "setting": "TA1535; [3]", "value": 14},
      {"measurement": "Colony Counts Replicate 1-3", "setting": "TA1535; [3]", "value": "16 and 15 and 10"},
      {"measurement": "Background Lawn Code", "setting": "TA1535; [4]", "value": 1},
      {"measurement": "Colony Counts Average", "setting": "TA1535; [4]", "value": 12},
      {"measurement": "Colony Counts Replicate 1-3", "setting": "TA1535; [4]", "value": "11 and 13 and 12"},
      {"measurement": "mean revertant colonies over negative control", "setting": "TA1535; repeat assay, -S9 condition", "value": "less than 2 fold"},
      {"measurement": "toxicity to AR−/lo LAPC9-AI vs AR+ LAPC9-AD cells", "setting": "[1]", "value": "selective toxicity"}
    ]}
  ]
}
